Here are results for one compound from ChEMBL document CHEMBL4814005, “Pragmatic recruitment of memantine as the capping group for the design of HDAC inhibitors: A preliminary attempt to unravel the enigma of glioblastoma” (Eur J Med Chem, 2021).

SMILES strings stand for the structures. The source made the active and inactive calls. The calls are words filed in the database; no cut-off is given here.

Data set [1] relates to U-87 MG. The data set is described as follows: Antiproliferation activity against TMZ resistant human U-87 MG R-50 cells assessed as growth inhibition at 3 uM by MTT assay. It counts as functional, cell-based. The note with it: U-87MG ATCC. Background: Tetrazolium assays rely on reduction of a dye to a coloured formazan, in cell work by metabolically active cells.
Data set [2] relates to A 172. As to the kind of experiment: Downregulation of PCNA expression in human A 172 cells upto 10 uM measured after 24 hrs by Western blot analysis. The note with it: dose microM <=10, time 24.0 hrs. It counts as functional, cell-based. For orientation: Immunoblotting shows a protein as a band on a membrane.
For data set [3], the system named is A 172. The data set is described as follows: Effect on cyclin B1 expression in human A 172 cells upto 10 uM after 24 hrs by Western blot analysis. It counts as functional, cell-based. The note with it: dose microM <=10, time 24.0 hrs.
The subject of data set [4] is A 172. The data set is described as follows: Induction of cell cycle arrest in human A 172 cells assessed as increase in histone H3-K9/K14 acetylation upto 10 uM for 24 hrs by Western blot analysis. It is filed as functional, cell-based. The note with it: dose microM <=10, time 24.0 hrs.
The subject of data set [5] is A 172. As to the kind of experiment: Induction of cell cycle arrest in human A 172 cells assessed as increase in histone alpha-tubulin-K40 acetylation upto 10 uM for 24 hrs by Western blot analysis. It is filed as functional, cell-based. The note with it: dose microM <=10, time 24.0 hrs.
For data set [6], the target named is Cyclin-dependent kinase 1/cyclin B1 (Homo sapiens) (UniProt P06493+P14635). As to the kind of experiment: Inhibition of CDK1/Cyclin B interaction in human A 172 cells assessed as CDK1 acetylation at 3 uM for 24 hrs by Western blot analysis. It is filed as cell-based.
Sequence of Cyclin-dependent kinase 1/cyclin B1 (Homo sapiens) (P06493 whole entry, looked up): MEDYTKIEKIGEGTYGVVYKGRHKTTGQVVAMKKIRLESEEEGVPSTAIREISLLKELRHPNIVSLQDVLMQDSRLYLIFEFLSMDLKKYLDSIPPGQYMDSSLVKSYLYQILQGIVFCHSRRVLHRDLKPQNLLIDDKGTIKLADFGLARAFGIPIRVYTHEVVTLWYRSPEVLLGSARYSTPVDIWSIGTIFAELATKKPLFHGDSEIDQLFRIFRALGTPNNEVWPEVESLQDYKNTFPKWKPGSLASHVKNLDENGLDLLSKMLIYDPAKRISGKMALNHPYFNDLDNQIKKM
Sequence of Cyclin-dependent kinase 1/cyclin B1 (Homo sapiens) (P14635 whole entry, looked up): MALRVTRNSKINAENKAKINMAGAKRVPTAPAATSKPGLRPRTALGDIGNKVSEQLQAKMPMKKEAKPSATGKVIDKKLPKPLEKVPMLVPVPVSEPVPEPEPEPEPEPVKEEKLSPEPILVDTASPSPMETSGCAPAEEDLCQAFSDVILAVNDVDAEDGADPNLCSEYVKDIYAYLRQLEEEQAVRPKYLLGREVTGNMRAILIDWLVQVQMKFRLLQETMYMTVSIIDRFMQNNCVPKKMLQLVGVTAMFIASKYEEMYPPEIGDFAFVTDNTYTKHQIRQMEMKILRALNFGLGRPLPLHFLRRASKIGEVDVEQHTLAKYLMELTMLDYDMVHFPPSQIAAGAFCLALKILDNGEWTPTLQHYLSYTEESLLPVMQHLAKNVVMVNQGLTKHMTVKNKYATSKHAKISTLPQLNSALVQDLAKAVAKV
In data set [7] the test system is A 172. As to the kind of experiment: Cytotoxicity against human A 172 cells assessed as reduction in cell viability upto 72 hrs by MTT assay. It counts as functional, cell-based. The note with it: dose microM <=30, time hrs <=72.
The subject of data set [8] is U-87 MG. As to the kind of experiment: Cytotoxicity against human U-87 MG cells assessed as reduction in cell viability upto 72 hrs by MTT assay. It is filed as functional, cell-based. The note with it: U-87MG ATCC, dose microM <=30, time hrs <=72.
Data set [9] relates to U-87 MG. As to the kind of experiment: Cytotoxicity against TMZ-resistant human U-87 MG cells assessed as reduction in cell viability upto 72 hrs by MTT assay. It is filed as functional, cell-based. The note with it: U-87MG ATCC, dose microM <=30, time hrs <=72.
The test system of data set [10] is Glioblastoma cell line. As to the kind of experiment: Cytotoxicity against TMZ-resistant human glioblastoma cell P3 cells assessed as reduction in cell viability upto 72 hrs by MTT assay. It is filed as functional, cell-based. The note with it: dose microM <=30, time hrs <=72.
The test system of data set [11] is Glioblastoma cell line. As to the kind of experiment: Cytotoxicity against human glioblastoma cell P1S cells assessed as reduction in cell viability upto 72 hrs by MTT assay. It is filed as functional, cell-based. The note with it: dose microM <=30, time hrs <=72.
In another data set the target is Histone deacetylase 1 (Homo sapiens, UniProt Q13547). The data set is described as follows: Inhibition of human recombinant HDAC1 expressed in baculovirus infected insect cells using [RHKK(Ac)] fluorogenic substrate.
Sequence of Histone deacetylase 1 (Q13547 whole entry): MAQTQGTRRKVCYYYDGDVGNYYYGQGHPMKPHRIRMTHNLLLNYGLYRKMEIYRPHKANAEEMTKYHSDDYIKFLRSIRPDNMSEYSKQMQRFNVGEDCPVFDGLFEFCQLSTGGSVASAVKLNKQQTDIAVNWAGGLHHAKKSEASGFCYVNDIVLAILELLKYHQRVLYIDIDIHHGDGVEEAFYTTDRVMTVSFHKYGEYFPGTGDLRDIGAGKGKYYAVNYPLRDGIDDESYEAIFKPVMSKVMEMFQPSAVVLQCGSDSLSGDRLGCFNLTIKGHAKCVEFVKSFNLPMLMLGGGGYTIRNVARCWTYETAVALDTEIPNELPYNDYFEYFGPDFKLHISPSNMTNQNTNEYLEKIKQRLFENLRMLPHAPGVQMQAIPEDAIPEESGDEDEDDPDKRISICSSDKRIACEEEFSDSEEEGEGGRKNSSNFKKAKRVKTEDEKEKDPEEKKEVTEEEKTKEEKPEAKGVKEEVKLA
The target in another data set is Histone deacetylase 3 (Homo sapiens, UniProt O15379). The data set is described as follows: Inhibition of human recombinant HDAC3 using [RHKK(Ac)] fluorogenic substrate.
Sequence of Histone deacetylase 3 (O15379 whole entry): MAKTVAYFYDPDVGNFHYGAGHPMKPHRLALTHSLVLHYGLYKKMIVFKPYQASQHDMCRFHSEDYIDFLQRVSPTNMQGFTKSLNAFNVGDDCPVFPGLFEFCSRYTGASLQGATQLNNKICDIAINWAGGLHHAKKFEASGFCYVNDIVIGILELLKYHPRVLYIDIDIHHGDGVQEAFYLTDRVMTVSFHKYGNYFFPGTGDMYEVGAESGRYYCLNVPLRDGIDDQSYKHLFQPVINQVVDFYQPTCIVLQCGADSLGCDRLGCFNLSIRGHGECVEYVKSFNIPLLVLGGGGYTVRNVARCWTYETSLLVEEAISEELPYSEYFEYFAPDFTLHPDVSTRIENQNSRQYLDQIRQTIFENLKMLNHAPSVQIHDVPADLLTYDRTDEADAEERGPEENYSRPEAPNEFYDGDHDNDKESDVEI
For a further data set, the target named is T1, Histone deacetylase 8 (Homo sapiens, UniProt Q9BY41).
T1 sequence (Q9BY41 whole entry): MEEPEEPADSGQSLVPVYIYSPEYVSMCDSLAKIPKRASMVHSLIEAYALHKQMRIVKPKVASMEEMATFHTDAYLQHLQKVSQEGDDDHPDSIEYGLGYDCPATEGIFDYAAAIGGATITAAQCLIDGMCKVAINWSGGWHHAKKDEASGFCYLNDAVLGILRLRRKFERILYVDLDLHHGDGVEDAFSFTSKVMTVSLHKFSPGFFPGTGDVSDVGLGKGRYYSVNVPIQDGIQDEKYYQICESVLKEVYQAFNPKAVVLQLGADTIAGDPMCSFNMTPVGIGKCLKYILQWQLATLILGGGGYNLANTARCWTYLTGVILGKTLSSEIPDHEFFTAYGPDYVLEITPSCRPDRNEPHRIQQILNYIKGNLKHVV
As to the kind of experiment: Inhibition of human recombinant HDAC8 using [RHKK(Ac)] fluorogenic substrate.

Data set [12] is described as follows: Permeability of compound by PAMPA-BBB assay. (In general: The PAMPA barrier holds no transporters, so it reflects passive diffusion.)
The subject of data set [13] is A 172. The data set is described as follows: Induction of cell cycle arrest in human A172 cells assessed as accumulation at G1/S phase measured by increase in cyclin E expression upto 10 uM after 24 hrs by Western blot analysis. The note with it: dose microM <=10, time 24.0 hrs. It is filed as functional, cell-based.
For data set [14], the system named is A 172. As to the kind of experiment: Induction of cell cycle arrest in human A 172 cells assessed as sub-G1 population upto 10 uM after 2 days by flow cytometry/PI staining assay. It counts as functional, cell-based. The note with it: dose microM <=10, time 2.0 day.
Data set [15] concerns A 172. The data set is described as follows: Cytotoxicity against human A 172 cells assessed as reduction in cell viability upto 30 uM by MTT assay. It is filed as functional, cell-based. The note with it: dose microM <=30, time hrs <=72, TDE = time-dependent effect.
For data set [16], the system named is A 172. As to the kind of experiment: Cytotoxicity against TMZ-resistant human A 172 cells assessed as reduction in cell viability upto 30 uM by MTT assay. It counts as functional, cell-based. The note with it: dose microM <=30, time hrs <=72, TDE = time-dependent effect.
The subject of data set [17] is U-87 MG. As to the kind of experiment: Cytotoxicity against TMZ-resistant human U-87 MG cells assessed as reduction in cell viability upto 30 uM by MTT assay. It counts as functional, cell-based. The note with it: U-87MG ATCC, dose microM <=30, time hrs <=72, TDE = time-dependent effect.
Data set [18] has as its system Glioblastoma cell line. As to the kind of experiment: Cytotoxicity against human glioblastoma cell P3 cells assessed as reduction in cell viability upto 30 uM by MTT assay. It counts as functional, cell-based. The note with it: dose microM <=30, time hrs <=72, TDE = time-dependent effect.
Data set [19] deals with Glioblastoma cell line. As to the kind of experiment: Cytotoxicity against TMZ-resistant human glioblastoma cell P3 cells assessed as reduction in cell viability upto 30 uM by MTT assay. It is filed as functional, cell-based. The note with it: dose microM <=30, time hrs <=72, TDE = time-dependent effect.
The subject of data set [20] is Glioblastoma cell line. As to the kind of experiment: Cytotoxicity against human glioblastoma cell P5 cells assessed as reduction in cell viability upto 30 uM by MTT assay. It is filed as functional, cell-based. The note with it: dose microM <=30, time hrs <=72, TDE = time-dependent effect.
Data set [21] concerns Glioblastoma cell line. As to the kind of experiment: Cytotoxicity against TMZ-resistant human glioblastoma cell P5 cells assessed as reduction in cell viability upto 30 uM by MTT assay. The note with it: dose microM <=30, time hrs <=72, TDE = time-dependent effect. It is filed as functional, cell-based.

As usually defined, the IC50 is the concentration needed to halve the response being measured. The Papp is a coefficient for how fast a substance crosses the barrier. Low values mean slow passage, high ones fast passage. Regarding `CC12CC3CC(C)(C1)CC(NCc1ccc(NC(=O)CCCCCCC(=O)NO)cc1)(C3)C2`, the outcome in the data set with U-87 MG [1], with A 172 [2] and in the data set on A 172 [3] was inactive. The outcome (in the data set with A 172 [4]; in the data set with A 172 [5]; in [6]; in the data set with A 172 [13]; in the data set on A 172 [14]) was Active. Further, the Activity entry in the data set on A 172 [7] was “Dose-Dependent Effect”; with U-87 MG [8] it was “Dose-Dependent Effect”; in the data set on U-87 MG [9], “Dose-Dependent Effect”; with Glioblastoma cell line [10], “Dose-Dependent Effect”; in the data set with Glioblastoma cell line [11], “Dose-Dependent Effect”; in the data set with A 172 [15] it was “Tde”. For the same compound, the Activity result in the data set with A 172 [16], with U-87 MG [17], in the data set with Glioblastoma cell line [18], in the data set with Glioblastoma cell line [19], in the data set on Glioblastoma cell line [20] and in the data set with Glioblastoma cell line [21] was “Tde” in each case. Besides, the IC50 was determined as 347 nM on Histone deacetylase 1, 806 nM at Histone deacetylase 3 and 638 nM on Histone deacetylase 8. The compound also displayed a Papp in data set [12] of 339 ×10⁻⁶ cm/s.
